Measured values from US5470737A, “Stably-transformed cells expressing human thiopurine methyltransferase” (priority 1994, dated 1995).
Entries after “also recorded” stand apart in the source; their conditions may differ.

Legend:
[1] = target: T1, human kidney TPMT Peak I (Homo sapiens, UniProt P51580); assay: Panel of methyltransferase inhibitors and ions, human kidney Peak I TPMT; assay type: biochemical
T1 construct: Human renal tissue contains two isoforms of TPMT, Peak I and Peak II, that can be separated by DEAE ion exchange chromatography; from tissue; host or cells: human kidney, DEAE Peak I, gel filtration
T1 sequence (P51580 1-245): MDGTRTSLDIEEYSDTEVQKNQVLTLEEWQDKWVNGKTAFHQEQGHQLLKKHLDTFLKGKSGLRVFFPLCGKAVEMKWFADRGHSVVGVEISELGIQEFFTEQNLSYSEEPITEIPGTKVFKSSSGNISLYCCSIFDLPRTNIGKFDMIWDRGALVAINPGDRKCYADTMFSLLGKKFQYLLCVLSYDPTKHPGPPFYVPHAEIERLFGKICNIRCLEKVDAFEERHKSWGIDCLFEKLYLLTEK
From the text: Human renal tissue contains two isoforms of TPMT, Peak I and Peak II, that can be separated by DEAE ion exchange chromatography as reported by J. A. Van Loon et al., Biochem. Genet., 20, 637 (1982). The two isoforms were separated by DEAE ion exchange chromatography, and the Peak I enzyme was then purified by gel filtration chromatography performed with Sephadex G-100 superfine as described by J. A. Van Loon et al., cited above. In some experiments, hydroxylapatite chromatography performed as described by J. A. Van Loon et al., in Biochem. Pharmacol., 44, 775 (1992) was added as a third purification step.
(§1) TPMT activity in renal tissue was measured by the method of R. M. Weinshilboum et al., in Clin. Chim. Acta, 85, 323 (1978) as modified by L. C. Woodson et al., Biochem. Pharmacol., 32, 819 (1983) to assay the enzyme in human kidney preparations. […] Ado-Met as the methyl donor. Assay conditions for the measurement of TPMT in T84 human colon carcinoma cells and in COS-1 cells were identical with those used to measure the enzyme activity in human renal tissue. One unit of TPMT activity represented the formation of 1 nmol of 6-MMP per hr of incubation at 37° C.
(§2) Finally, the response of the TPMT expressed in COS-1 cells to a panel of methyltransferase inhibitors and ions was compared with that of TPMT activity in human kidney 100,000×g supernatant, partially purified human kidney Peak I TPMT and T84 cell TPMT (Table 3).

[2] = system: catechol O-methyltransferase (COMT); conditions: cited from earlier work
[3] = target: T2, T84 cell TPMT (Homo sapiens, UniProt P51580); assay: Panel of methyltransferase inhibitors and ions, T84 cell 100,000×g supernatant; assay type: biochemical
T2 construct: Cytosol from T84 cells did contain TPMT enzymatic activity; host or cells: T84 human colon carcinoma cells
T2 sequence (P51580 1-245): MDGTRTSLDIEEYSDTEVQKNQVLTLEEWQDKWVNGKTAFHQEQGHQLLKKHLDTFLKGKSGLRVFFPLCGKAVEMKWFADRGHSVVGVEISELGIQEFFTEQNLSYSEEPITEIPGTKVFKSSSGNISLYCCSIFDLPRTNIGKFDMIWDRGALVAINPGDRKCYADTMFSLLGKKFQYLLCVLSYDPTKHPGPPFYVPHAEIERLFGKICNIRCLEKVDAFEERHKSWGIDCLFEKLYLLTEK
Procedure: as §1
T84 human colon carcinoma cells (American Type Culture Collection, Rockville, Md.) were grown to confluence in an equal volume mixture of Dulbecco's modified Eagle's medium (DMEM) and Ham's F12 media with 5% fetal calf serum. The cells were then harvested, cell pellets were washed in phosphate buffered saline (PBS), and the pellets were homogenized for 30 sec in 1 ml of 5 mM potassium phosphate buffer, pH 7.5, with a Polytron homogenizer. Homogenates of the cells were centrifuged at 100,000×g for 1 hr at 4° C., and the supernatant was used to assay TPMT activity and to determine selected biochemical properties of the enzyme.
as §2

[4] = target: T3, TPMT (Homo sapiens, UniProt P51580); assay: Inhibition of TPMT, all sources of enzyme (summary in words); assay type: biochemical
T3 construct: T84 cDNA transiently expressed in COS-1 cells, plus native human kidney 100,000×g supernatant, partially purified kidney Peak I and T84 cell enzyme
T3 sequence (P51580 1-245): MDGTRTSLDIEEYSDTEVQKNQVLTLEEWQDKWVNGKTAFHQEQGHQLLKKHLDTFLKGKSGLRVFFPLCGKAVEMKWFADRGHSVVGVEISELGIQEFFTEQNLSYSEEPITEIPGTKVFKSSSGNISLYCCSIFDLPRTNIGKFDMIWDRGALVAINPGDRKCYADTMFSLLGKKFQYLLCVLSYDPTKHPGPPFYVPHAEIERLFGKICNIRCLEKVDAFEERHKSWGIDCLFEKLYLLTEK
From the text: as §2
As shown by the data in Table 3, the results were nearly identical for all sources of enzyme and each activity was inhibited by the TPMT reaction products, Ado-Hcy and 6-MMP. However, the enzyme was not affected by inhibitors of other methyltransferase enzymes.

[5] = target: T4, TPMT, human kidney 100,000×g supernatant (Homo sapiens, UniProt P51580); assay: Panel of methyltransferase inhibitors and ions, human kidney 100,000×g supernatant; assay type: biochemical
T4 construct: renal tissue was homogenized in 5 mM potassium phosphate buffer, pH 7.5, with a Polytron homogenizer, and a 100,000×g supernatant was prepared; from tissue; host or cells: human kidney (renal tissue)
T4 sequence (P51580 1-245): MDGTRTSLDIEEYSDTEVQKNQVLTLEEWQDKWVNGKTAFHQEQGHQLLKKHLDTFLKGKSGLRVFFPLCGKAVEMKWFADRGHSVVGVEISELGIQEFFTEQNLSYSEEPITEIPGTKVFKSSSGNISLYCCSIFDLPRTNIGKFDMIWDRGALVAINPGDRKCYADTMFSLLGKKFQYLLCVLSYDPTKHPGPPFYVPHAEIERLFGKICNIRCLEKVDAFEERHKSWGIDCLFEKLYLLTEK
Procedure: Renal tissue was obtained either during autopsy or from patients undergoing clinically indicated nephrectomies. Hepatic tissue was obtained from patients who underwent clinically indicated partial hepatectomies for the removal of primary or metastatic hepatic tumors. All tissue was obtained under guidelines approved by the Mayo Clinic Institutional Review Board. Macroscopically normal tissue was stored at -80° C., conditions under which TPMT activity is stable (C. L. Szumlanski et al., Pharmacogenetics, 2, 148 (1992); J. A. Van Loon et al., Drug Met. Disposit., 18, 632 (1990)). Prior to enzyme purification, renal tissue was homogenized in 5 mM potassium phosphate buffer, pH 7.5, with a Polytron homogenizer, and a 100,000×g supernatant was prepared as described by L. C. Woodson et al., Biochem. Pharmacol., 32, 819 (1983). Amino acid sequence information was obtained with TPMT purified from human renal tissue--a tissue with a high specific activity for the enzyme.
as §1, §2

[6] = target: T5, TPMT expressed in COS-1 cells transfected with T84 TPMT cDNA (Homo sapiens, UniProt P51580); assay: Panel of methyltransferase inhibitors and ions, COS-1 cells transfected with T84 TPMT cDNA; assay type: biochemical
T5 construct: digested with SstI to excise the coding region, the 5'-untranslated region and a portion (ca. 600 nucleotides) of the 3'-untranslated region; expressed in transfected cells; host or cells: COS-1 (simian), vector P91023(B)
T5 sequence (P51580 1-245): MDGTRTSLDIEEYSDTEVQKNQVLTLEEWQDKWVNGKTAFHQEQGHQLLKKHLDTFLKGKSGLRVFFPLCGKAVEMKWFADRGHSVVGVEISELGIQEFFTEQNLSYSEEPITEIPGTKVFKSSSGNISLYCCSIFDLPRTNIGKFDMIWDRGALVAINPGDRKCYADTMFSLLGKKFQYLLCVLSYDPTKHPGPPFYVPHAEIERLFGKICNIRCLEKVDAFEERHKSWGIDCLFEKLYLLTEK
Procedure: (§3) TPMT activity in renal tissue was measured by the method of R. M. Weinshilboum et al., in Clin. Chim. Acta, 85, 323 (1978) as modified by L. C. Woodson et al., Biochem. Pharmacol., 32, 819 (1983) to assay the enzyme in human kidney preparations. […] Assay conditions for the measurement of TPMT in T84 human colon carcinoma cells and in COS-1 cells were identical with those used to measure the enzyme activity in human renal tissue. One unit of TPMT activity represented the formation of 1 nmol of 6-MMP per hr of incubation at 37° C.
Simian COS-1 cells were then plated in 100-mm dishes at a density of 1.5-1.8×10^6 cells/dish in DMEM with 10% fetal calf serum, and were allowed to grow overnight. Three dishes of cells were used for each transfection. Purified "sense" plasmid vector (0.5 μg) was mixed with DEAE-dextran and DMEM, and the mixture was added to the cell culture dishes, following the procedures of J. H. McCutchan et al., J. Natl. Cancer Inst., 41, 351 (1988) and R. J. Kaufman et al., Mol. Cell. Biol., 9, 946 (1989). Control cells were treated with no DNA, with expression vector alone, or with constructs that contained the cDNA clone in an antisense orientation. After 1 hr, the DNA-DEAE-dextran solution was replaced for 2 min with DMEM that contained 10% dimethylsulfoxide, followed by incubation for 2 hr in 0.1 mM chloroquine in DMEM following the procedure of H. Luthman et al., Nucl. Acids Res., 11, 1295 (1983). Cells were then grown for 40-42 hr in DMEM with 10% fetal calf serum. The cells from each transfection were harvested and pooled, cell pellets were washed in 5 ml of PBS, and the cell pellets were homogenized for 30 sec in 2 ml of 5 mM potassium phosphate buffer, pH 7.5. Homogenates were centrifuged at 15,000×g for 15 min at 4° C., supernatants from that step were centrifuged at 100,000×g for 1 hr at 4° C., and 0.25 μl aliquots of 100,000×g supernatant preparations were then assayed for transient expression of TPMT enzymatic activity.

[7] = system: thiol methyltransferase (TMT); conditions: cited from earlier work
[8] = system: TPMT; conditions: cited from earlier work
[9] = system: patients with genetically low or undetectable RBC TPMT activity; conditions: patients lacking or with low TPMT activity; cited from earlier work
[10] = target: T2, T84 cell TPMT; assay: TPMT biochemical characteristics: pH optimum and apparent Km, T84 cells; conditions: 150 mM potassium phosphate buffer, seven pH values 5.5 to 8.5
Procedure: as §3

[11] = substrate: Sc1ncnc2nc[nH]c12; assay: purified protein, by the assay type; conditions: other: T84 cells; 25 μM Ado-Met, 6-MP 0.11 to 6.8 mM; 37.0 °C
[12] = substrate: C[S+](CC[C@H](N)C(=O)O)C[C@H]1O[C@@H](n2cnc3c(N)ncnc32)[C@H](O)[C@@H]1O; assay: purified protein, by the assay type; conditions: other: T84 cells; 3.4 mM 6-MP, Ado-Met 0.78 to 25 μM; 37.0 °C
[13] = tissue stored at -80° C.; cited from earlier work
[14] = target: T6, human kidney TPMT (Homo sapiens, UniProt P51580); conditions: cited from earlier work
T6 construct: to assay the enzyme in human kidney preparations; host or cells: human kidney
T6 sequence (P51580 1-245): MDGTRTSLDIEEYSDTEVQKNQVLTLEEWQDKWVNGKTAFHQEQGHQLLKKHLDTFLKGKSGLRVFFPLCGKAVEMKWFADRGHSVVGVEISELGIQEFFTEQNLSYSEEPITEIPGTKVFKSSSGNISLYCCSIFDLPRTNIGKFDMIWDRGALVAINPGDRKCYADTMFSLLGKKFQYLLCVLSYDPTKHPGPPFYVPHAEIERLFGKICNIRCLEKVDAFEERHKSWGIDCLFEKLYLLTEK

[15] = read-out: Activity Remaining, %

In the case of [Ca+2].[Cl-].[Cl-] [CaCl2], the “Activity Remaining, %” value ([1]; human kidney TPMT Peak I, 1 mM) is listed as 97%, the “inhibition of catechol O-methyltransferase (in words)” value [2] is listed as “an inhibitor of catechol O-methyltransferase” and the “Activity Remaining, %” value ([3]; T84 cell 100,000×g supernatant, 1 mM) is listed as 95%. The “effect on TPMT activity (in words)” value [4] was “not affected”, the “Activity Remaining, %” value ([5]; human kidney 100,000×g supernatant, 1 mM) was 96% and the “Activity Remaining, %” value ([6]; COS-1 cells transfected with T84 TPMT cDNA, 1 mM) was 96%.

For CC(N)c1cccc(Cl)c1Cl (stereo not drawn) [DCMB, 2,3-dichloro-α-methylbenzylamine], the remaining activity at 1000 µM [1, 15] is listed as 95%, the remaining activity at 1000 µM [3, 15] is listed as 99% and the “inhibition of thiol methyltransferase (in words)” value [7] is listed as “inhibitors of thiol methyltransferase”. For the same molecule, the “effect on TPMT activity (in words)” value [4] was “not affected”, the remaining activity at 1000 µM [5, 15] was 95% and the remaining activity at 1000 µM [6, 15] was 95%.

In the case of CCCC(C(=O)OCCN(CC)CC)(c1ccccc1)c1ccccc1 [SKF-525A], the remaining activity at 500 µM ([1]; human kidney TPMT Peak I, 0.5 mM) is given as 98%, the remaining activity at 500 µM ([3]; T84 cell 100,000×g supernatant, 0.5 mM) is given as 102% and the “inhibition of thiol methyltransferase (in words)” value [7] is given as “inhibitors of thiol methyltransferase”. The “effect on TPMT activity (in words)” value [4] was “not affected”, the remaining activity at 500 µM ([5]; human kidney 100,000×g supernatant, 0.5 mM) was 107% and the remaining activity at 500 µM ([6]; COS-1 cells transfected with T84 TPMT cDNA, 0.5 mM) was 101%.

For Cn1cnc([N+](=O)[O-])c1Sc1ncnc2nc[nH]c12 [azathioprine], the “substrate for TPMT (in words)” value [8] is listed as “substrates for TPMT” and the “risk of myelosuppression (in words)” value [9] is listed as “even more at risk for the occurrence of severe myelosuppression; also recorded: greatly increased risk for the development of life-threatening thiopurine-induced myelosuppression”.

B1: T84 cell TPMT (Homo sapiens) (protein)
chain: MDGTRTSLDIEEYSDTEVQKNQVLTLEEWQDKWVNGKTAFHQEQGHQLLKKHLDTFLKGKSGLRVFFPLCGKAVEMKWFADRGHSVVGVEISELGIQEFFTEQNLSYSEEPITEIPGTKVFKSSSGNISLYCCSIFDLPRTNIGKFDMIWDRGALVAINPGDRKCYADTMFSLLGKKFQYLLCVLSYDPTKHPGPPFYVPHAEIERLFGKICNIRCLEKVDAFEERHKSWGIDCLFEKLYLLTEK
In the case of B1, the “pH Optimum” value [10] is reported as 6.5, the Km [11] is reported as 710 µM and the Km [12] is reported as 5.1 µM. The “stability of TPMT activity (in words)” value [13] was “stable” and the “pH Optimum” value [14] was 6.5.
